# Assay results from paper PMC9231376, “Membrane Permeability and Aqueous Stability Study of Linear and Cyclic Diarylheptanoids from Corylus maxima” (Pharmaceutics, 2022).
# Values joined by “and” are separate entries in the source; they are usually repeats but may differ in a detail not shown here. Equal values may be shown once.
# Columns and labels:
# [1] = Parallel artificial membrane permeability assay for the gastrointestinal tract (PAMPA-GI); type: in vitro ADME; conditions: for Papp at 4 h, 100 µM: PAMPA, read-out: log Pe PAMPA-GI (converted); for log Pe PAMPA-GI: donor pH 6.8, acceptor pH 7.4, 37 °C, 4 h, n = 9, Pe in cm/s, n.d. = not detected in the acceptor phase
# Experimental: (§1) The test solutions were prepared with dimethyl sulfoxide (DMSO) at the concentration of 10.0 mM. These were diluted with phosphate buffers (pH = 7.4 for the PAMPA-BBB and pH = 6.8 for the PAMPA-GI) to obtain the donor solutions (297.0 μL buffer + 3.0 μL DMSO solution) and filtered through Phenex-RC 15 mm, 0.2 μm syringe filters (Gen-Lab Ltd., Budapest, Hungary). A parallel artificial membrane permeability assay (PAMPA) system was used to determine the effective permeability (Pe) for the compounds of interest. Each well of the top plate (96-well polycarbonate-based filter donor plates (Multiscreen™-IP, MAIPN4510, pore size 0.45 μm; Merck, Darmstadt, Germany) was coated with 5 μL of porcine polar brain lipid extract (PBLE) solution (16.0 mg PBLE + 8.0 mg cholesterol dissolved in 600.0 μL n-dodecane) for the PAMPA-BBB and with 5 μL of the mixture of 8.0 mg phosphatidylcholine + 4.0 mg cholesterol dissolved in 300.0 μL n-dodecane for PAMPA-GI. Thereafter, 150.0 μL of the filtrate was placed on the membrane. The bottom plate (96-well PTFE acceptor plates (MultiScreen Acceptor plate, MSSACCEPTOR; Millipore, Burlington, MA, USA)), was filled with a 300.0 μL buffer solution (0.01 M PBS buffer, pH = 7.4). The donor and acceptor plates were fit, and then the sandwich system was incubated at 37 °C for 4 h in a Stat-Fax 2200. After the incubation the PAMPA plates were separated and the compound concentrations in the donor (CD(t)) and acceptor (CA(t)) solutions, as well as in the donor solution at the zero time point (CD(0)) were determined by UHPLC-DAD. The effective permeability and the membrane retention in the PAMPA-BBB (1) and the PAMPA GI (2) experiments were calculated by the following equations [12]:(1) Pe=−2.303/A(t−τSS)·(VA·VD/VA+VD)·lg[1−(VA+VD/(1−MR)·VD)×(CA(t)/CD(0))] (2) Pe=−2.303/A(t−τSS))·(1/1+ra)·lg[−ra+(1+ra/1−MR)×(CD(t)/CD(0))] where Pe is the effective permeability coefficient (cm/s), A is the filter area (0.24 cm^2), VD and VA are the volumes in the donor (0.15 cm^3) and acceptor phases (0.30 cm^3), t is the incubation time (s), τSS is the time (s) to reach steady-state (240 s), CD(t) is the concentration (mol/cm^3) of the compound in the donor phase at time t, CD(0) is the concentration (mol/cm^3) of the compound in the donor phase at time 0, MR is the estimated membrane retention factor (the estimated mole fraction of solute lost to the membrane) and ra is the sink asymmetry ratio (gradient-pH-induced), defined as (3) ra=VD/VA×Pe(A→D)/Pe(D→A) (4) MR=1−CD(t)/CD(0)−VA/VDCA(t)/CD(0)
# (§2) All experiments were performed in triplicates on three consecutive days (n = 9), caffeine standard was used as positive, while rutin as negative control. ClogP values were calculated by ChemAxon Marvin 22.3.
# [2] = Determination of aqueous stability (UHPLC-DAD, 4 h at 37 °C); type: physicochemical; conditions: for Aqueous stability at all three investigated pH values (in words): pH 1.2, 6.8 and 7.4, no notable change in peak areas, no degradation products detected; for Aqueous stability pH = 1.2: compound concentration after 4 h of incubation compared to the initial value: pH 1.2 simulated gastric fluid, n = 3; for Aqueous stability pH = 6.8: compound concentration after 4 h of incubation compared to the initial value: pH 6.8 simulated intestinal fluid; for Aqueous stability pH = 6.8: compound concentration after 4 h of incubation compared to the initial value / Aqueous stability pH = 7.4: compound concentration after 4 h of incubation compared to the initial value: n = 3, * p < 0.05 vs initial; for Aqueous stability pH = 7.4: compound concentration after 4 h of incubation compared to the initial value: pH 7.4 PBS; for Significance of decrease in compound concentration (in words): paired-sample t-test, p < 0.05, pH 1.2, 6.8, 7.4
# Experimental: The aqueous solutions and buffers were prepared as follows: pH = 1.2, 1.0 g NaCl and 3.5 mL HCl dissolved in distilled water to achieve the final volume of 500.0 mL; pH = 6.8, 20.2 g Na2HPO4·7H2O and 3.4 g NaH2PO4·H2O dissolved in distilled water to achieve the final volume of 1000.0 mL, pH adjustment with 0.5 M NaOH or 0.5 M HCl; pH = 7.4, one PBS tablet (phosphate buffered saline, pH 7.4; Sigma Aldrich, St. Louis, MO, USA) dissolved in 200.0 mL of distilled water.
# With the aforementioned buffers, 10 mM dimethyl sulfoxide stock solutions of the isolated compounds were diluted 100-fold. […] For degradable compounds, the above-mentioned validated UHPLC-DAD method was used to examine the change in compound concentration. All experiments were performed in triplicates (n = 3).
# [3] = Parallel artificial membrane permeability assay for the blood–brain barrier (PAMPA-BBB); type: in vitro ADME; conditions: for log Pe PAMPA-BBB: donor pH 7.4, acceptor pH 7.4, 37 °C, 4 h, n = 9, Pe in cm/s, n.d. = not detected in the acceptor phase
# Experimental: as §1, §2
Structure (SMILES),"Papp at 4 h, 100 µM [1]",Aqueous stability at all three investigated pH values (in words) [2],Aqueous stability pH = 1.2: compound concentration after 4 h of incubation compared to the initial value [2],Aqueous stability pH = 6.8: compound concentration after 4 h of incubation compared to the initial value [2],Aqueous stability pH = 7.4: compound concentration after 4 h of incubation compared to the initial value [2],log Pe PAMPA-BBB [3],log Pe PAMPA-GI [1],Significance of decrease in compound concentration (in words) [2],Aqueous stability pH = 7.4: compound concentration after 4 h of incubation compared to the initial value ([2]; listed as 2),"Papp at 4 h, 100 µM ([3]; PAMPA, pH 7.4, read-out: log Pe PAMPA-BBB (converted))"
"O=C1CCc2ccc(O)c(c2)-c2cc(ccc2O)C[C@H](O)[C@H](O)[C@H]1O [carpinontriol B (9), carpinontriol B]",3.24 ×10⁻⁶ cm/s,stable,102.75 ± 1.09%,101.51 ± 1.75%,103.28 ± 1.81%,,,,,
"COc1c2cc(c(OC)c1O)Oc1ccc(cc1)CCC(=O)C[C@H](O)/C=C\2 [giffonin F (8), giffonin F]",,stable,99.97 ± 1.01%,102.68 ± 2.45%,100.92 ± 2.02%,not detected in the acceptor phase,not detected in the acceptor phase,,,
"O=C(/C=C/CCc1ccc(O)c(O)c1)CCc1ccc(O)c(O)c1 [hirsutenone (3), hirsutenone]",,,99.63 ± 0.37%,,83.80 ± 2.41 * %,not detected in the acceptor phase,not detected in the acceptor phase,decreased significantly only at pH 7.4,,
"O=C(CCc1ccc(O)c(O)c1)C[C@H](CCc1ccc(O)c(O)c1)O[C@@H]1OC[C@@H](O)[C@H](O)[C@H]1O [oregonin (2), oregonin]",,,98.67 ± 2.43%,91.22 ± 3.01 * %,59.93 ± 2.85 * %,not detected in the acceptor phase,not detected in the acceptor phase,significant decrease both at pH 6.8 and 7.4,59.93 ± 2.85%,
"O=C(/C=C/CCc1ccc(O)cc1)CCc1ccc(O)cc1 [platyphyllenone (5), platyphyllenone]",12 ×10⁻⁶ cm/s,,99.45 ± 1.05%,94.98 ± 2.10% and 94.98 ± 2.10 * %,90.40 ± 1.52% and 90.40 ± 1.52 * %,> −6.0,greater than −5.0,significant decrease both at pH 6.8 and 7.4,,5.75 ×10⁻⁶ cm/s
"C[C@@H]1O[C@@H](Oc2c(-c3ccc(O)c(O)c3)oc3cc(O)cc(O)c3c2=O)[C@H](O)[C@H](O)[C@H]1O [quercitrin (10), quercitrin]",,stable,100.91 ± 0.53%,102.35 ± 1.85%,100.75 ± 0.96%,not detected in the acceptor phase,not detected in the acceptor phase,,,
